According to PMC10287695, “Non-covalent inhibitors of thioredoxin glutathione reductase with schistosomicidal activity in vivo” (Nature Communications, 2023):
Values joined by “and” are separate entries in the source; they are usually repeats but may differ in a detail not shown here. Equal values may be shown once.

How the values were obtained:
S. mansoni adult worms = assay: GSH/GSSG ratio in ex vivo adult worms; format: cell-based; conditions: 1 hr; second data set (r136-144), baseline 63.5617, DMSO 63.4928
Description: We assessed GSH/GSSG levels experimentally by treating S. mansoni adult worms with 50 µM of compounds, or respective controls 5 µM Auranofin, 50 µM PZQ or 50 µM MZM and 0.01% DMSO for 3 h. Worm homogenate was prepared by washing three times with PBS to remove residual compounds and ten volumes of ice cold 5% sulfosalicylic acid was added. Worms were manually homogenized on ice using VWR Pellet Mixer Adaptor. The worm suspension was centrifuged at 14000 × g, 4 °C for 10 min and the acid supernatants transferred. An equal volume of ice-cold neutralization buffer (500 mM HEPES, pH 8.0) was added to the acid supernatants.
GSH/GSSG assay was performed by diluting the acid supernatant (5-fold) with ice-cold dilution buffer (250 mM HEPES, pH 7.5). Using white opaque luminescence plate on ice, 25 µl of the diluted worm acid supernatant was added each well in triplicates. Total glutathione lysis reagent and GSSG lysis reagent, which contains alkylating agent N-ethylmaleimide (25 mM) were prepared following manufactures protocol and added to respective wells along with blank for background. Total glutathione lysis reagent or oxidized glutathione lysis reagent (25 µl) was added to respective wells containing worm acid supernatants and the plate was shaken for 5 min. Luciferin generation reagent (LGR) (50 µl) was added to all wells, briefly shaken and incubated at room temperature for 30 min. Luciferin detection reagent (LDR) (100 µl) was added to all wells, briefly shaken and incubated for 15 min at room temperature and the luminescence measured using microplate imager (BioTek Cytation3). GSH/GSSH ratio for DMSO control and compounds were calculated using (Net DMSO total glutathione RFU) – (Net DMSO GSSG RFU)/ (Net DMSO GSSG RFU)/2 and (Net inhibitor total glutathione RFU) – (Net inhibitor GSSG RFU)/ (Net inhibitor GSSG RFU)/2 respectively.

Human GR = target: T1, Human GR (Homo sapiens, UniProt P00390); assay: Human GR enzyme inhibition (GSSG reduction, NADPH oxidation); format: biochemical; conditions: 66.7 µM
T1 construct: made in house
T1 sequence (P00390 44-522): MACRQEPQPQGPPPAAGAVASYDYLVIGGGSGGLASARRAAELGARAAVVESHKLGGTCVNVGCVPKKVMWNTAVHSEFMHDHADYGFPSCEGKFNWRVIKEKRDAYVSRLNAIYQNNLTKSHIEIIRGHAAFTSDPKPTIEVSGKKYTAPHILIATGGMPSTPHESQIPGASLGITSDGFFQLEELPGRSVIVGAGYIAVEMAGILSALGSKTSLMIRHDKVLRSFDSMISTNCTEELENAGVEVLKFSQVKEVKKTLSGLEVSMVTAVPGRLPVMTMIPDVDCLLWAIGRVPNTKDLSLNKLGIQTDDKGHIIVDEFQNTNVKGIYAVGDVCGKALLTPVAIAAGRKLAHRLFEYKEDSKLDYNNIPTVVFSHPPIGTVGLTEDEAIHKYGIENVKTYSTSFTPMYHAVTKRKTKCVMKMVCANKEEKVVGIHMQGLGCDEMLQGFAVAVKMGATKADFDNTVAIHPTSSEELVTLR
Description: Recombinant TGR, human TrxR1, B. malayi (Bm)TrxR and human GR proteins were expressed and purified as described[20],[69],[79]. The codon optimized sequence for P. falciparum (PfTrxR, https://www.ncbi.nlm.nih.gov/protein/CAA60574.1/) with an N-terminal 6-His tag was synthesized and inserted into pET15b (GenScript) and expressed in BL21 (DE3) cells and purified as described for human GR[20]. TGR and TrxR enzyme inhibition assays were performed in triplicate at 25 °C as described[20] in 0.1 M potassium phosphate (pH 7.4), 10 mM EDTA, 100 µM NADPH and 0.01% Tween-20. TGR, human TrxR1 and BmTrxR (all at 4 nM) and PfTrxR (50 nM) were preincubated with the compounds for 15 min. The reaction was started with addition of an equal volume of DTNB (6 mM) and NADPH (100 µM) and the increase in A412 during the first 3 min was recorded. […] […] Activity was initiated with the addition of 1 mM GSSG and 100 μM NADPH and initial rates of NADPH oxidation were monitored at 340 nm. The reactions were done in triplicate. The IC50 was calculated in GraphPad Prism.

BmTrxR = BmTrxR (Brugia malayi, UniProt A0A1I9G0T9); assay: B. malayi TrxR enzyme inhibition; format: biochemical
Description: Recombinant TGR, human TrxR1, B. malayi (Bm)TrxR and human GR proteins were expressed and purified as described[20],[69],[79]. The codon optimized sequence for P. falciparum (PfTrxR, https://www.ncbi.nlm.nih.gov/protein/CAA60574.1/) with an N-terminal 6-His tag was synthesized and inserted into pET15b (GenScript) and expressed in BL21 (DE3) cells and purified as described for human GR[20]. […] The reaction was started with addition of an equal volume of DTNB (6 mM) and NADPH (100 µM) and the increase in A412 during the first 3 min was recorded. […] Activity was initiated with the addition of 1 mM GSSG and 100 μM NADPH and initial rates of NADPH oxidation were monitored at 340 nm. The reactions were done in triplicate. The IC50 was calculated in GraphPad Prism.

PfTrxR = target: T2, PfTrxR (Plasmodium falciparum, UniProt Q25861); assay: P. falciparum TrxR enzyme inhibition; format: biochemical
T2 construct: 6-His (N); made in house; host or cells: E. coli BL21 (DE3)
T2 sequence (Q25861 1-541): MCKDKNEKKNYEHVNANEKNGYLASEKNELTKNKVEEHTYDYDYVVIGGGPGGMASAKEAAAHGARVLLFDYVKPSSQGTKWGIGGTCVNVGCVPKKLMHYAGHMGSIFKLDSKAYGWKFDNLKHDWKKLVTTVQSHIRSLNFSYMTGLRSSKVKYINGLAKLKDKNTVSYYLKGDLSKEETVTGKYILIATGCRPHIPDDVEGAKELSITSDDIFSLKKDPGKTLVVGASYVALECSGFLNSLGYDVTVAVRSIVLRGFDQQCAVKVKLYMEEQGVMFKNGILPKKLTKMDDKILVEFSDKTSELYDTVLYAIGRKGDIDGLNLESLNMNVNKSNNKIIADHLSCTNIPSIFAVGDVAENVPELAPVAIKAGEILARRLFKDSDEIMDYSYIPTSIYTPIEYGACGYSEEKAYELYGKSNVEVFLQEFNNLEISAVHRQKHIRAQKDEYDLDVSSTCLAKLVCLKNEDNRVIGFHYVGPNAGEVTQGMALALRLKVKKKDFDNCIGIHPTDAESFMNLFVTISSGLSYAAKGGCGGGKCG
Description: Recombinant TGR, human TrxR1, B. malayi (Bm)TrxR and human GR proteins were expressed and purified as described[20],[69],[79]. The codon optimized sequence for P. falciparum (PfTrxR, https://www.ncbi.nlm.nih.gov/protein/CAA60574.1/) with an N-terminal 6-His tag was synthesized and inserted into pET15b (GenScript) and expressed in BL21 (DE3) cells and purified as described for human GR[20]. TGR and TrxR enzyme inhibition assays were performed in triplicate at 25 °C as described[20] in 0.1 M potassium phosphate (pH 7.4), 10 mM EDTA, 100 µM NADPH and 0.01% Tween-20. TGR, human TrxR1 and BmTrxR (all at 4 nM) and PfTrxR (50 nM) were preincubated with the compounds for 15 min. The reaction was started with addition of an equal volume of DTNB (6 mM) and NADPH (100 µM) and the increase in A412 during the first 3 min was recorded. […] The reaction was preincubated for 15 min. Activity was initiated with the addition of 1 mM GSSG and 100 μM NADPH and initial rates of NADPH oxidation were monitored at 340 nm. The reactions were done in triplicate. The IC50 was calculated in GraphPad Prism.

TGR [1] = target: T3, TGR (Schistosoma mansoni, UniProt Q962Y6, X597U); assay: NADPH consumption (oxidase activity); format: biochemical, S. mansoni
T3 construct: made in house
Description: TRi-1, Stattic (both at 50 µM) and AF (20 µM) were incubated with 1 ml of 500 nM TGR and 100 µM NADPH in TGR reaction buffer for 30 min. The samples were desalted using a Zeba spin desalting column (Thermo Fisher Scientific) and 100 µl of the desalted sample was combined with 100 µl of 100 µM NADPH. NADPH consumption was monitored at 340 nm in triplicate. Compounds 1, 4, 6, and 7 (50 µM) were tested in the same fashion without the desalting step and with a first incubation step of 30 min for 6 and 7 and 2 h for 1 and 4.

TGR [2] = target: T4, TGR (Schistosoma mansoni, UniProt Q962Y6); assay: Reversibility by jump dilution; format: biochemical
T4 construct: made in house
T4 sequence (Q962Y6 1-598): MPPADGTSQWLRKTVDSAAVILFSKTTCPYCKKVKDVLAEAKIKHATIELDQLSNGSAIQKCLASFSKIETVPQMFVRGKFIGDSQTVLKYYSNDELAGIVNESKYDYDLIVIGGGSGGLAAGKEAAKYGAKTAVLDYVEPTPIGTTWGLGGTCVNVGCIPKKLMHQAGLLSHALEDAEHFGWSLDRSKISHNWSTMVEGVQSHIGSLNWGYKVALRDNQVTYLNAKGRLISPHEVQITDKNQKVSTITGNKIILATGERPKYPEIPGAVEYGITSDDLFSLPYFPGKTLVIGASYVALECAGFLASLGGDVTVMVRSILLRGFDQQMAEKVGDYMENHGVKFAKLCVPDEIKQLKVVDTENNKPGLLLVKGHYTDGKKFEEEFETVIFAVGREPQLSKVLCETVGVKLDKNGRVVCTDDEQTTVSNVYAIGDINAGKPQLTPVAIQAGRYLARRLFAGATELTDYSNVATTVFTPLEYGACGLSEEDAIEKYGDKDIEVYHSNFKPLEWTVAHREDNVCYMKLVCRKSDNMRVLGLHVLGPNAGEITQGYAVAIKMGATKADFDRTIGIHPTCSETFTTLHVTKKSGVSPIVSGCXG
Description: A reaction of 370 nM TGR, 100 µM NADPH, and 250 µM inhibitor was incubated for 15 min at room temperature. A 100x dilution of the reaction was made and the activity was determined immediately and after 60 min.

TGR [3] = target: T3, TGR; assay: Superoxide production (pyrogallol red); format: biochemical, S. mansoni; conditions: replicates
Description: The production of superoxide by TGR was determined by monitoring reaction of superoxide with pyrogallol red[80]. Briefly, a 1 ml reaction mix (500 nM TGR, 100 µM NADPH, and 20–50 µM inhibitor) was incubated at room temperature for 30 min for fast inhibitors, or 2 h for slow inhibitors. For irreversible inhibitor controls TRi-1 (synthesized in house as reported[45]), Stattic (Cayman Chemical), and AF (Cayman Chemical), the samples were desalted using a Zeba spin desalting column. 100 µL of sample was combined with pyrogallol buffer with and without superoxide dismutase (SOD) (50 µM pyrogallol red, 300 µM NADPH; ± 10 units SOD). The reaction was measured at A340 and A540 simultaneously for 2 h.

[4] = D0: diluted 1:100, activity determined immediately, list for plotting
[5] = D60: diluted 1:100, activity determined after 60 min, list for plotting

Sequence of BmTrxR (A0A1I9G0T9 entry or part of it, added parts left off): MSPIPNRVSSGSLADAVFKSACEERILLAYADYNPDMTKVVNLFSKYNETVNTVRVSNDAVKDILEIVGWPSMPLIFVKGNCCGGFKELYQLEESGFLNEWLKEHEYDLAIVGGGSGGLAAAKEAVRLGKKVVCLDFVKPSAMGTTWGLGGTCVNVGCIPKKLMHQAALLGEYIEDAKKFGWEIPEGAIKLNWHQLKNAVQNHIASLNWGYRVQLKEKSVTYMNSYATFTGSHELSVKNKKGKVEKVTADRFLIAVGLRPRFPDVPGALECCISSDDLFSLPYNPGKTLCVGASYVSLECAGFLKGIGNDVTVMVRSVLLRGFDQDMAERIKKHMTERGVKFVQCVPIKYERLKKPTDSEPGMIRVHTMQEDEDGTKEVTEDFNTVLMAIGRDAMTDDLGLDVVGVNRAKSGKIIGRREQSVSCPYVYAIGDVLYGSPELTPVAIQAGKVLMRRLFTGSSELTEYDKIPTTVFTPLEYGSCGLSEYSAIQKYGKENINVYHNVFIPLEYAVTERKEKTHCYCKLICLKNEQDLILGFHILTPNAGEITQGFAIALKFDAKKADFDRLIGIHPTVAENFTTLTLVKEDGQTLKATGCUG

## C[C@@H]1[C@H]2C[C@@H](C[C@H]1NC(=O)Cc1nc3ccccc3n1C1CCCCC1)C2(C)C [Compound 10]
S. mansoni adult worms
  Ratio GSH/GSSG: 63.3816
Human GR
  Human GR (inhibition at 66.7 µM): n.i.
BmTrxR; BmTrxR, 1 µM compound, mean of 3 replicates
  inhibition at 1 µM: 27.9%
BmTrxR; BmTrxR, 5 µM compound, mean of 3 replicates
  inhibition at 5 µM: 68%
BmTrxR; BmTrxR, 15 µM compound, mean of 3 replicates
  inhibition at 15 µM: 100%
BmTrxR; BmTrxR, 30 µM compound, mean of 3 replicates
  inhibition at 30 µM: 108%
BmTrxR; BmTrxR, 66.7 µM compound, mean of 3 replicates
  inhibition at 66.7 µM: 106%
BmTrxR; read-out: BmTrxR IC50
  IC50: 2500 nM
PfTrxR
  IC50: 32.9 ± 4.46 µM
  inhibition at 1 µM: 3.2%
  inhibition at 5 µM: 6.15%
  inhibition at 15 µM: 29.7%
  inhibition at 30 µM: 48.5%
  inhibition at 66.7 µM: 66.9%

## O=[N+]([O-])c1ccc2c(c1)S(=O)(=O)C=C2 [Stattic, reference compound]
TGR [1]
  NADPH consumption by TGR after exposure: converted TGR to a pro-oxidant enzyme
TGR [1]; replicates
  NADPH consumption (rate/ΔOD340): -0.002179 and -0.002159 and -0.002209
TGR [2]; 250 µM inhibitor, 100-fold jump dilution
  reversibility of TGR inhibition: irreversible
TGR [2]; [4]
  % Activity (ID list), D0: 1.1% and 0.9% and -0.249%
  % Inhibition (ID list), D0: 98.9% and 99.1% and 100.2%
TGR [2]; [5]
  % Activity (ID list), D60: -0.15% and 2.9% and 1.8%
  % Inhibition (ID list), D60: 100.1% and 97.1% and 98.2%
TGR [2]; [0, D0]: 15 min preincubation inhibitor + TGR + NADPH, diluted 1:100, then activity determined immediately, relative to DMSO
  % Activity, 0 min: 1.12% and 0.8821% and -0.2494%
TGR [2]; [60, D60]: 15 min preincubation inhibitor + TGR + NADPH, diluted 1:100, then activity determined after 60 min, relative to DMSO
  % Activity, 60 min: -0.1498% and 2.864% and 1.829%
TGR [2]; [-15]: 15 min preincubation inhibitor + TGR + NADPH, then activity determined, raw rate, replicates
  Inhibitor (rate), -15: 0.0007 and 0.0003 and -0.0004
TGR [2]; [-15]: 15 min preincubation inhibitor + TGR + NADPH, then activity determined, relative to DMSO, replicates
  % Activity, -15: 1.077% and 0.4412% and -0.5874%
TGR [2]; before dilution (-15), list for plotting
  % Inhibition (ID list): 100.5% and 100.0% and 98.7%
TGR [3]; condition not given
  Superoxide production, Pyrogallol red consumption monitored ΔA540: -0.005958 and -0.005844 and -0.006065
TGR [3]; second of the two columns per substance (condition not given)
  Superoxide production, Pyrogallol red consumption monitored ΔA540: -6.328e-5 and -6.968e-5 and -6.397e-5
